From US9078909B2, “Tertiary amines, medicaments containing said amines, use thereof and processes for the preparation thereof” (Boehringer Ingelheim International GmbH, priority 2012, dated 2015)

The compounds below were run against T1, epithelial sodium channel (ENaC) (Mus musculus, UniProt Q61180+Q9WU38+Q9WU39) (assay: Ussing Chamber assay: inhibition of amiloride sensitive short circuit current (I_sc) in M-1 cells). Settings: not given.
T1 construct: Mouse kidney M-1 cells were cultivated in DMEM; endogenous in cells; host or cells: mouse kidney M-1 cells (cortical collecting duct line), dexamethasone-treated, on transwell filters
T1 sequence (Q61180 1-699): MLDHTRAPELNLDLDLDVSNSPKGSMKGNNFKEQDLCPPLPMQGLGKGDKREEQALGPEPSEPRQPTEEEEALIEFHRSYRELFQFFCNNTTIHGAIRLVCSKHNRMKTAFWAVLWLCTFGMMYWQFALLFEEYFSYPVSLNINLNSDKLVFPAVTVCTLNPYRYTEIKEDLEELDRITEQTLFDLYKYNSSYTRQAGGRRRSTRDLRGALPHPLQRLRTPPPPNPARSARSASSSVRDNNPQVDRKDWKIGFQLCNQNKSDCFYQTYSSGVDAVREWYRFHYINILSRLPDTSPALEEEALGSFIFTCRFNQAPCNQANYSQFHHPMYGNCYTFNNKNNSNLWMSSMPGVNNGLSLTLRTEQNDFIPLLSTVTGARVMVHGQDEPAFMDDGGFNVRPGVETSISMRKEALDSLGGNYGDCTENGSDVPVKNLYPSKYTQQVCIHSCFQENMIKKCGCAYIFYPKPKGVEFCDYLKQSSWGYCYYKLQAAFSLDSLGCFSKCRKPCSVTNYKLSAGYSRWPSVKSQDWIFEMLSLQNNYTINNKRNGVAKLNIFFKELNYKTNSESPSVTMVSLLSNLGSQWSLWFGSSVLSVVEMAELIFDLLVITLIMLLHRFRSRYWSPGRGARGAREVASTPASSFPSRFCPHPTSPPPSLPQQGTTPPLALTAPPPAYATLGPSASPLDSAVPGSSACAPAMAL
T1 sequence (Q9WU38 1-638): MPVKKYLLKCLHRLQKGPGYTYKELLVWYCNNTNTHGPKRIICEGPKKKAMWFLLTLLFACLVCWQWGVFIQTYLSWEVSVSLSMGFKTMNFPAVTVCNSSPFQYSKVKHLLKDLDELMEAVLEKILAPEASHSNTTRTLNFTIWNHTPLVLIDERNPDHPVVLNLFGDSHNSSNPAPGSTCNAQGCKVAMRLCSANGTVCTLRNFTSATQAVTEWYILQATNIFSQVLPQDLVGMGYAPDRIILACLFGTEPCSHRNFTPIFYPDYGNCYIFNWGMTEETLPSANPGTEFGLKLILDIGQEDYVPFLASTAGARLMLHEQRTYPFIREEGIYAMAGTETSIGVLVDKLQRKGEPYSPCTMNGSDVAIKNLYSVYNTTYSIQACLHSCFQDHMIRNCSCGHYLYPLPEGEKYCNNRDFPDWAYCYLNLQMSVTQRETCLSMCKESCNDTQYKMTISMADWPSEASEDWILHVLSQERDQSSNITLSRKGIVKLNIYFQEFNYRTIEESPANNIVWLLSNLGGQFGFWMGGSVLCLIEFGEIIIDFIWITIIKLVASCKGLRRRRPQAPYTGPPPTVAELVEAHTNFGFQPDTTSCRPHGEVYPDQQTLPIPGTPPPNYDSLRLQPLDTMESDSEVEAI
T1 sequence (Q9WU39 1-655): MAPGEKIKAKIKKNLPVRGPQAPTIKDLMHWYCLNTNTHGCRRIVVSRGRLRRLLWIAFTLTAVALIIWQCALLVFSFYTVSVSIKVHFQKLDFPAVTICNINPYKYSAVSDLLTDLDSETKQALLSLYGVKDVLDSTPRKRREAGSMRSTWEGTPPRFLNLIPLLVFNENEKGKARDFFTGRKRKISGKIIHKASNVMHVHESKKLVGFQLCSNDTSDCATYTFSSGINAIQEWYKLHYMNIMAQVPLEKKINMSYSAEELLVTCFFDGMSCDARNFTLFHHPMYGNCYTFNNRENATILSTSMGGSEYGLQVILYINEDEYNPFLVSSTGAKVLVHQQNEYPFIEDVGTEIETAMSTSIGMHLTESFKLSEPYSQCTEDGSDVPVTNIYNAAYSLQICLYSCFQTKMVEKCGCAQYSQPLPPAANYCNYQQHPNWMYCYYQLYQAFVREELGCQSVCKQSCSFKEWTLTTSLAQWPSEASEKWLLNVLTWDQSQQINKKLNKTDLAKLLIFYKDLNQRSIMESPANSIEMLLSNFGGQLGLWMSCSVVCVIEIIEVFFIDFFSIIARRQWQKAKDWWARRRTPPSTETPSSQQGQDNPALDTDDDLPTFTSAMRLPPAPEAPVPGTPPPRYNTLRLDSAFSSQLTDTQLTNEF
Type: cell-based
Description: Ussing Chamber: Mouse kidney M-1 cells were cultivated in DMEM containing 5% FCS and 5 μM dexamethasone for 10 to 12 days on polyester transwell filters. Filters were inserted into a teflon-coated well-plate which fit into the in-house ussing chamber system. Prior to measurement the medium of M-1 cells was replaced with Caco-2 transport buffer (Invitrogen, Germany). During measurements, the Ussing chamber temperature was kept at 37° C. Short circuit currents (I_sc) were measured in the voltage-clamp mode using an in-house built amplifier (Boehringer Ingelheim, Biberach) with the software package Lab View for data acquisition and analysis. The transepithelial electrical resistance (TEER) was determined by the application of voltage steps of ±5 mV every 5 sec. Compounds were administered at a final concentration of 3 μM or at increasing concentrations (e.g. 1-3-10 μM) to the apical solution. At the end of each experiment the amiloride sensitive I_SC was measured by adding 3 μM amiloride to the apical compartment. Results are expressed as inhibition in percent of the amiloride effect or as IC50.
With the example compounds given above, the following IC50 values were determined in the Ussing Chamber assay: […]

| Structure (SMILES) | IC50 |
| --- | --- |
| CCOP(=O)(CN1CCC(NC(N)=NC(=O)c2nc(Cl)c(N)nc2N)CC1)OCC [Example 4.16] | 19 nM |

Same assay, conditions: Ussing Chamber; mouse kidney M-1 cells on transwell filters; short circuit current; compound added to apical solution; 37° C.; read-out: IC50

| Structure (SMILES) | IC50 |
| --- | --- |
| N=C(NC(=O)c1nc(Cl)c(N)nc1N)NC1CCN(CC(=O)O)CC1 [Example 5.1] | 266 nM |
| CN1CCC(N(C)C(=O)c2ccc(NC(=O)CN3CCC(NC(N)=NC(=O)c4nc(Cl)c(N)nc4N)CC3)cc2)CC1 [Example 1.5] | 6 nM |
| NC(=NC(=O)c1nc(Cl)c(N)nc1N)NC1CCN(CC(=O)NCCCn2ccnc2)CC1 [Example 1.24] | 7 nM |
| NC(=NC(=O)c1nc(Cl)c(N)nc1N)NC1CCN(CC(=O)N2CCSCC2)CC1 [Example 4.15] | 12 nM |
| NC(=NC(=O)c1nc(Cl)c(N)nc1N)NC1CCN(CC(=O)NCc2ccc(N3CCNC3=O)cc2)CC1 [Example 6.13] | 3 nM |
| CN1CCC(CN2CCC(NC(N)=NC(=O)c3nc(Cl)c(N)nc3N)CC2)CC1 [Example 4.17] | 72 nM |
| NC(=NC(=O)c1nc(Cl)c(N)nc1N)NC1CCN(CC(=O)Nc2ccc(S(N)(=O)=O)cc2)CC1 [Example 1.4] | 2 nM |
| NC(=NC(=O)c1nc(Cl)c(N)nc1N)NC1CCN(CC(=O)NC2CCOCC2)CC1 [Example 1.29] | 8 nM |
| NC(=NC(=O)c1nc(Cl)c(N)nc1N)NC1CCN(CCCC(=O)O)CC1 [Example 5.3] | 169 nM |
| NC(=NC(=O)c1nc(Cl)c(N)nc1N)NC1CCN(CC(=O)OCc2ccccc2)CC1 [Example 4.9] | 6 nM |
| NC(=NC(=O)c1nc(Cl)c(N)nc1N)NC1CCN(CC(=O)NCC(=O)O)CC1 [Example 5.2] | 80 nM |
| NC(=NC(=O)c1nc(Cl)c(N)nc1N)NC1CCN(CC(=O)NC2CCSCC2)CC1 [Example 1.31] | 2 nM |
| COC(=O)c1cccc(NC(=O)CN2CCC(NC(N)=NC(=O)c3nc(Cl)c(N)nc3N)CC2)c1 [Example 1.19] | 3 nM |
| Cn1ccc(NC(=O)CN2CCC(NC(N)=NC(=O)c3nc(Cl)c(N)nc3N)CC2)cc1=O [Example 1.15] | 4 nM |
| NC(=O)c1cccc(CNC(=O)CN2CCC(NC(N)=NC(=O)c3nc(Cl)c(N)nc3N)CC2)c1 [Example 6.9] | 8 nM |
| CN(C(=O)CN1CCC(NC(N)=NC(=O)c2nc(Cl)c(N)nc2N)CC1)c1ccccc1 [Example 1.22] | 22 nM |
| CCN(CC)CCOc1ccc(NC(=O)CN2CCC(NC(N)=NC(=O)c3nc(Cl)c(N)nc3N)CC2)cc1 [Example 1.12] | 2 nM |
| NC(=O)c1ccc(NC(=O)CN2CCC(NC(N)=NC(=O)c3nc(Cl)c(N)nc3N)CC2)cc1 [Example 1.2] | 2 nM |
| NC(=NC(=O)c1nc(Cl)c(N)nc1N)NC1CCN(CC(=O)NCc2ccccc2SC(F)(F)F)CC1 [Example 6.3] | 1 nM |
| COC(=O)c1cccc(CNC(=O)CN2CCC(NC(N)=NC(=O)c3nc(Cl)c(N)nc3N)CC2)c1 [Example 6.5] | 6 nM |
| Cc1ccc(CNC(=O)CN2CCC(NC(N)=NC(=O)c3nc(Cl)c(N)nc3N)CC2)o1 [Example 1.27] | 4 nM |
| CC(=O)N(CCCN(C)C)c1ccc(NC(=O)CN2CCC(NC(N)=NC(=O)c3nc(Cl)c(N)nc3N)CC2)cc1 [Example 1.10] | 1 nM |
| CC(C)(C)OC(=O)C1CCN(C(=O)CN2CCC(NC(N)=NC(=O)c3nc(Cl)c(N)nc3N)CC2)CC1 [Example 4.24] | 17 nM |
| CCCCOC(=O)CN1CCC(NC(N)=NC(=O)c2nc(Cl)c(N)nc2N)CC1 [Example 4.10] | 4 nM |

| Structure (SMILES) | IC50 |
| --- | --- |
| NC(=NC(=O)c1nc(Cl)c(N)nc1N)NC1CCN(CC(=O)Nc2cccc(S(=O)(=O)O)c2)CC1 [Example 1.20] | 17 nM |
| CS(=O)(=O)c1ccc(CNC(=O)CN2CCC(NC(N)=NC(=O)c3nc(Cl)c(N)nc3N)CC2)cc1 [Example 1.25] | 3 nM |
| NC(=NC(=O)c1nc(Cl)c(N)nc1N)NC1CCN(CC(=O)NC2CN3CCC2CC3)CC1 (stereo not drawn) [Example 1.32] | 13 nM |
| COC(=O)CCN1CCC(NC(=N)NC(=O)c2nc(Cl)c(N)nc2N)CC1 [Example 4.1] | 19 nM |
| CC(C)NC(=O)CN1CCC(NC(N)=NC(=O)c2nc(Cl)c(N)nc2N)CC1 [Example 6.7] | 3 nM |
| NC(=NC(=O)c1nc(Cl)c(N)nc1N)NC1CCN(CC(=O)N2CCC(C(=O)O)CC2)CC1 [Example 5.4] | 176 nM |
| CN1CCN(c2cccc(CNC(=O)CN3CCC(NC(N)=NC(=O)c4nc(Cl)c(N)nc4N)CC3)c2)CC1 [Example 6.10] | 3 nM |
| NC(=NC(=O)c1nc(Cl)c(N)nc1N)NC1CCN(CC(=O)NCc2nccs2)CC1 [Example 6.11] | 3 nM |
| NC(=NC(=O)c1nc(Cl)c(N)nc1N)NC1CCN(C(C(=O)NCc2ccccc2)C(=O)NCc2ccccc2)CC1 [Example 4.20] | 10 nM |
| CCN1CCC(NC(N)=NC(=O)c2nc(Cl)c(N)nc2N)CC1 [Example 4.14] | 53 nM |
| CCN(CC)C(=O)CN1CCC(NC(N)=NC(=O)c2nc(Cl)c(N)nc2N)CC1 [Example 4.5] | 36 nM |
| CCNC(=O)CN1CCC(NC(N)=NC(=O)c2nc(Cl)c(N)nc2N)CC1 [Example 1.33] | 5 nM |
| N#CCN1CCC(NC(=N)NC(=O)c2nc(Cl)c(N)nc2N)CC1 [Example 7.1] | 35 nM |
| COCCN(CCOC)C(=O)CN1CCC(NC(N)=NC(=O)c2nc(Cl)c(N)nc2N)CC1 [Example 6.2] | 27 nM |
| CN(C)CCN(C)S(=O)(=O)c1ccc(NC(=O)CN2CCC(NC(N)=NC(=O)c3nc(Cl)c(N)nc3N)CC2)cc1 [Example 1.11] | 1 nM |
| NC(=NC(=O)c1nc(Cl)c(N)nc1N)NC1CCN(CC(=O)NCc2ccccc2)CC1 [Example 1.23] | 3 nM |
| CCSCCN1CCC(NC(N)=NC(=O)c2nc(Cl)c(N)nc2N)CC1 [Example 4.2] | 10 nM |
| COCCNC(=O)CN1CCC(NC(N)=NC(=O)c2nc(Cl)c(N)nc2N)CC1 [Example 6.12] | 2 nM |
| CCOC(=O)C(C(=O)OCC)N1CCC(NC(N)=NC(=O)c2nc(Cl)c(N)nc2N)CC1 [Example 4.19] | 9 nM |
| NC(=NC(=O)c1nc(Cl)c(N)nc1N)NC1CCN(CCN2CCOCC2)CC1 [Example 4.7] | 30 nM |
| NC(=NC(=O)c1nc(Cl)c(N)nc1N)NC1CCN(CC(=O)Nc2ccc(CN3CCCCC3)cc2)CC1 [Example 1.8] | 1 nM |
| CCOC(=O)c1cccc(CCNC(=O)CN2CCC(NC(N)=NC(=O)c3nc(Cl)c(N)nc3N)CC2)c1 [Example 1.34] | 4 nM |
| COc1ccc(CNC(=O)CN2CCC(N/C(N)=N/C(=O)c3nc(Cl)c(N)nc3N)CC2)cc1 [Example 6.1] | 5 nM |
